{
  "source": "patent US12564596B2",
  "about": "“Agents and methods for modulating pathogen activity” (Griffith University, priority 2018, dated 2026)",
  "key": {"[1]": {"tested_on": "HIV strains NL4-3 and NLAD8 adherence to CHO-CR3 cells", "test": "Fluorometric adherence assay, HIV to CHO cells", "assay_type": "cell-based", "protocol": "To test the ability of HIV to bind to CHO cells in a CR3 dependent fashion, and to test the ability of carbamazepine to block adherence of HIV to CHO-CR3 or CHO-neo cells, a fluorometric adherence assay was used, essentially as described by Jen et al (2013, supra). In this regard, CHO-neo or CHO-CR3 cells were seeded to a 96-well plate and allowed to grow to confluence. Fluorescently labelled HIV (10 ng of p24 HIV capsid protein equivalent of HIV in 100 μL of F12 culture media) were then used to challenge (2 h) CHO cells simultaneously with, or without, various concentrations of carbamazepine (as noted). Fluorescence (485/528 nm) intensity, corresponding to HIV cell adherence, was recorded using a Synergy HT Multi-mode Microplate Reader (BioTek Instruments, Winooski, VT USA). […] A Kruskal-Wallis k-sample analysis of variance was used to determine the statistical significance of the calculated mean of viral-cell adherence.\nHaving established the CR3-dependent binding of HIV to CHO cells, the inventors next examined the ability of carbamazepine to block the interaction of HIV strains NL4-3 and NLAD8 with the CR3 I-domain using fluorometric adherence assays. CR3-expressing (CHO-CR3) and non-expressing (CHO-neo) CHO cells, were seeded to microtiter plates, and HIV adherence was quantitated fluorometrically, as described by Jen et al. (2013, supra). […]"}, "[2]": {"tested_on": "N. gonorrhoeae strain MS11gfp adherence to CHO-CR3 cells", "test": "Fluorometric adherence assay, gonococci to CHO cells", "assay_type": "cell-based, Neisseria gonorrhoeae", "conditions": "1 h post-challenge", "protocol": "The ability of carbamazepine to block adherence of N. gonorrhoeae strain MS11gfp to CHO-neo or CHO-CR3 cells was evaluated using a fluorometric adherence assay. Assays were performed essentially as described by Jen et al (2013, PLoS Pathog. 9(5):e1003377). In this regard, CHO-neo or CHO-CR3 cells were seeded to a 96-well plate and allowed to grow to confluence. MS11gfp gonococci were then used to challenge (1 h) CHO cells simultaneously with, or without, various concentrations of carbamazepine (as noted). Fluorescence (485/528 nm) intensity, corresponding to bacterial adherence, was recorded using a Synergy HT Multi-mode Microplate Reader (BioTek Instruments, Winooski, VT USA). The assay was performed in triplicate on 3 separate occasions. A Kruskal-Wallis k-sample analysis of variance was used to determine the statistical significance of the calculated mean of bacterial adherence.\n(§1) The ability of the compounds, or negative controls to block adherence of N. gonorrhoeae strain MS11gfp to PEX cells, CHO-CR3, or CHO-neo cells was evaluated using a fluorometric microtiter plate assay. Assays were performed essentially as described by Jen et al. (2013, Plos Pathog 9(5): e1003377). In this regard, GFP-expressing gonococci were used to challenge (1 h) PEX or CHO cells immediately following compound addition. Fluorescence (485/528 nm) intensity, corresponding to bacterial adherence, was recorded using a Synergy HT Multi-mode Microplate Reader (BioTek Instruments, Winooski, VT USA). Blank wells, devoid of PEX or CHO cells, also were inoculated with bacteria and served as a control for non-specific binding. The assay was performed in triplicate on 3 separate occasions. A Student's t-test was used to determine the statistical significance of the calculated mean of bacterial adherence."}, "[3]": {"tested_on": "N. gonorrhoeae adherence to primary human cervical epithelial (PEX) cells", "test": "Fluorometric adherence assay, gonococci to PEX cells", "assay_type": "cell-based, Neisseria gonorrhoeae", "text": "Briefly, six N. gonorrhoeae strains were used in the experiments. These included the laboratory strain, MS11; the low-passage isolates, 1291, UT38097, LT38885, PID-26, and SK92-679; all of which were transformed with the green fluorescent protein (GFP) expression plasmid, pCmGFP (GenBank accession number FJ172221) Srikhanta et al (2009, PLoS Pathog. 5(4):e1000400) and, thus, expressed GFP Edwards et al (2000, Infect Immun 68(9):5354-63). […] The ability of carbamazepine to block the adherence of N. gonorrhoeae to human, primary cervical epithelial (PEX) cells was evaluated using a fluorometric adherence assay. Assays were performed essentially as described by Jen et al (2013, supra). In this regard, PEX cells were seeded to a 96-well plate and allowed to grow to confluence. Gonococci were then used to challenge (1 h) PEX cells simultaneously with, or without, various concentrations of carbamazepine ([…], 10 nM, 1 μM, or 100 μM, as noted) or 1% DMSO (vehicle control). Uninfected PEX cells treated with 1% DMSO served as a control for background fluorescence. Fluorescence (485/528 nm) intensity, corresponding to bacterial adherence, was recorded using a Synergy HT Multi-mode Microplate Reader (BioTek Instruments, Winooski, VT USA). The assay was performed in triplicate on 3 separate occasions. A Student's t-test was used to determine the statistical significance of the calculated mean of bacterial adherence.\nas §1"}},
  "data": [
    {"smiles": "NC(=O)N1c2ccccc2C=Cc2ccccc21", "note": "[carbamazepine, 5H-dibenzo[b,f]azepine-5-carboxamide]", "values": [
      {"measurement": "HIV adherence to CHO-CR3 cells compared with CHO-neo cells", "setting": "[1]; 1 μM, 2 h post-challenge", "value": "not significantly different than that recorded for CHO-neo cells"},
      {"measurement": "HIV adherence to CHO-CR3, but not CHO-neo, cells with increasing concentrations", "setting": "[1]; 2 h", "value": "dose-dependent decrease"},
      {"measurement": "gonococcal adherence to CHO-CR3 cells compared with CHO-neo cells", "setting": "[2]; 1 μM", "value": "not significantly different than that recorded for CHO-neo cells"},
      {"measurement": "gonococcal adherence to CHO-CR3, but not CHO-neo, cells with increasing concentrations", "setting": "[2]", "value": "dose-dependent decrease"},
      {"measurement": "gonococcal adherence to PEX cells with increasing concentrations", "setting": "[3]; 1 h post-challenge", "value": "dose-dependent decrease"},
      {"measurement": "inhibition at 1 µM", "setting": "[3]; Neisseria gonorrhoeae, 1 h, read-out: inhibition of adherence to PEX cells", "value": "> 95", "unit": "%"}
    ]}
  ]
}
